{"source": "patent US12083100B1", "about": "“Antiparasitic isoxazoline compounds, long-acting injectable formulations comprising them, methods and uses thereof” (BOEHRINGER INGELHEIM ANIMAL HEALTH USA INC., priority 2016, dated 2024)", "key": {"[1]": {"tested_on": "Haematobia irritans (horn fly)", "experiment": "Efficacy of long-acting injectable composition against Haematobia irritans (horn fly) on cattle", "type": "in vivo", "settings": "naturally infested cattle, 10% (w/v) composition at 0.25 mL/50 kg body weight", "protocol": "The efficacy of a long-acting injectable composition comprising the compound of formula (S)-Ie against horn fly on cattle was evaluated. Two groups of 15 cattle were selected for the study and randomly assigned to one of two groups. The cattle in Group 1 were untreated and the cattle in Group 2 were treated with a long-acting composition of the invention containing 10% (w/v) of the compound of formula (S)-Ie in a carrier comprising 8% (w/v) ethanol in PEG 400 (QS). The composition was administered to the cattle in Group 2 at a dose of 0.25 mL/50 kg body weight. Each animal was naturally infested with horn flies, and horn fly counts were performed on Days-2, 3, 7, 10, 13, 16, 20, 23, 27, 30, 34, 37, 43, 45 and 48. Tables 2A and 2B below provide the horn fly counts and the % reduction of the treated group relative to the control."}, "[2]": {"tested_on": "Rhipicephalus microplus ticks", "experiment": "Efficacy of injectable formulation against Rhipicephalus (Boophilus) microplus ticks on cattle", "type": "in vivo", "settings": "for Average % Efficacy (Tick Count): vs untreated control", "protocol": "The efficacy of long-acting injectable compositions of the invention comprising the compounds of formula (Ie) and (S)-Ie, against Rhipicephalus microplus ticks on cattle was determined against an untreated control group. The efficacy of compositions comprising the compounds (Ie) and (S)-e were also compared with injectable compositions comprising afoxolaner (formula Ia, 4-[5-[3-chloro-5-(trifluoromethyl)phenyl]-4,5-dihydro-5-(trifluoromethyl)-3-isoxazolyl]-N-[2-oxo-2-[(2,2,2-trifluoroethyl)amino]ethyl]-1-naphthalanecarboxamide), and comparative compounds of formulae (If) and (S)-If shown below.\nEach compound was formulated in an injectable composition at a concentration of 10% (w/v) in a carrier comprising 8% (w/v) ethanol and Q.S. with polyethylene glycol 400. The racemic compounds afoxolaner and (If) were dosed at 1.0 mg/kg body weight and the (S)-enantiomers ((S)-Ie and (S)-If) were dosed at 0.5 mg/kg body weight. Six healthy head of cattle were used in each study group. Cattle in Group 1 were untreated (control). Cattle in Groups 2, 3, 4, 5 and 6 were treated on Day 0 subcutaneously with injectable compositions comprising the compounds of formula Ie, (S)-If, (S)-Ie, afoxolaner (Ia) and (If), respectively. Several weeks before treatment, cattle were infested three times a week with approximately 2500 Rhipicephalus microplus larvae to establish ongoing infestations. Each animal was challenged by infestation with approximately 5000 R. microplus larvae on Days 7 and 21 and every 14 days thereafter. Ticks dropping from each animal in the previous 24 hours were collected daily and counted from Day 1 until the end of the study."}, "[3]": {"settings": "injectable composition, compared with afoxolaner, (If) or (S)-If"}}, "data": [{"smiles": "O=C(CNC(=O)c1ccc(C2=NO[C@@](c3cc(Cl)c(F)c(C(F)(F)F)c3)(C(F)(F)F)C2)c2ccccc12)NCC(F)(F)F", "note": "[(S)-Ie]", "values": [{"measurement": "% Reduction of horn fly counts of the treated group relative to the control", "setting": "[1]; Day 3", "value": 89.5, "unit": "%"}, {"measurement": "Arithmetic Mean of Horn Fly Counts", "setting": "[1]; Day 3", "value": 26.7}, {"measurement": "% Reduction of horn fly counts of the treated group relative to the control", "setting": "[1]; Day 7", "value": 74.3, "unit": "%"}, {"measurement": "Arithmetic Mean of Horn Fly Counts", "setting": "[1]; Day 7", "value": 35.0}, {"measurement": "% Reduction of horn fly counts of the treated group relative to the control", "setting": "[1]; Day 10", "value": 79.6, "unit": "%"}, {"measurement": "Arithmetic Mean of Horn Fly Counts", "setting": "[1]; Day 10", "value": 16.0}, {"measurement": "% Reduction of horn fly counts of the treated group relative to the control", "setting": "[1]; Day 13", "value": 63.3, "unit": "%"}, {"measurement": "Arithmetic Mean of Horn Fly Counts", "setting": "[1]; Day 13", "value": 22.0}, {"measurement": "% Reduction of horn fly counts of the treated group relative to the control", "setting": "[1]; Day 16", "value": 57.3, "unit": "%"}, {"measurement": "Arithmetic Mean of Horn Fly Counts", "setting": "[1]; Day 16", "value": 44.7}, {"measurement": "% Reduction of horn fly counts of the treated group relative to the control", "setting": "[1]; Day 20", "value": 56.6, "unit": "%"}, {"measurement": "Arithmetic Mean of Horn Fly Counts", "setting": "[1]; Day 20", "value": 36.0}, {"measurement": "% Reduction of horn fly counts of the treated group relative to the control", "setting": "[1]; Day 23", "value": 42.5, "unit": "%"}, {"measurement": "Arithmetic Mean of Horn Fly Counts", "setting": "[1]; Day 23", "value": 30.7}, {"measurement": "% Reduction of horn fly counts of the treated group relative to the control", "setting": "[1]; Day 27", "value": 61.8, "unit": "%"}, {"measurement": "Arithmetic Mean of Horn Fly Counts", "setting": "[1]; Day 27", "value": 22.7}, {"measurement": "% Reduction of horn fly counts of the treated group relative to the control", "setting": "[1]; Day 30", "value": 67.6, "unit": "%"}, {"measurement": "Arithmetic Mean of Horn Fly Counts", "setting": "[1]; Day 30", "value": 23.0}, {"measurement": "% Reduction of horn fly counts of the treated group relative to the control", "setting": "[1]; Day 34", "value": 44.8, "unit": "%"}, {"measurement": "Arithmetic Mean of Horn Fly Counts", "setting": "[1]; Day 34", "value": 26.3}, {"measurement": "% Reduction of horn fly counts of the treated group relative to the control", "setting": "[1]; Day 37", "value": 61.8, "unit": "%"}, {"measurement": "Arithmetic Mean of Horn Fly Counts", "setting": "[1]; Day 37", "value": 28.0}, {"measurement": "% Reduction of horn fly counts of the treated group relative to the control", "setting": "[1]; Day 43", "value": 39.5, "unit": "%"}, {"measurement": "Arithmetic Mean of Horn Fly Counts", "setting": "[1]; Day 43", "value": 26.0}, {"measurement": "% Reduction of horn fly counts of the treated group relative to the control", "setting": "[1]; Day 45", "value": 35.5, "unit": "%"}, {"measurement": "Arithmetic Mean of Horn Fly Counts", "setting": "[1]; Day 45", "value": 43.0}, {"measurement": "% Reduction of horn fly counts of the treated group relative to the control", "setting": "[1]; Day 48", "value": 31.1, "unit": "%"}, {"measurement": "Arithmetic Mean of Horn Fly Counts", "setting": "[1]; Day 48", "value": 30.3}, {"measurement": "Average % Efficacy (Tick Count)", "setting": "[2]; Day 5, 0.5 mg/kg subcutaneous on Day 0 ((S)-enantiomers)", "value": 66, "unit": "%"}, {"measurement": "Average % Efficacy (Tick Count)", "setting": "[2]; Day 10, 0.5 mg/kg subcutaneous on Day 0 ((S)-enantiomers)", "value": 93, "unit": "%"}, {"measurement": "Average % Efficacy (Tick Count)", "setting": "[2]; Day 20, 0.5 mg/kg subcutaneous on Day 0 ((S)-enantiomers)", "value": 100, "unit": "%"}, {"measurement": "Average % Efficacy (Tick Count)", "setting": "[2]; Day 30, 0.5 mg/kg subcutaneous on Day 0 ((S)-enantiomers)", "value": 100, "unit": "%"}, {"measurement": "Average % Efficacy (Tick Count)", "setting": "[2]; Day 40, 0.5 mg/kg subcutaneous on Day 0 ((S)-enantiomers)", "value": 100, "unit": "%"}, {"measurement": "Average % Efficacy (Tick Count)", "setting": "[2]; Day 49, 0.5 mg/kg subcutaneous on Day 0 ((S)-enantiomers)", "value": 100, "unit": "%"}, {"measurement": "Average % Efficacy (Tick Count)", "setting": "[2]; Day 55, 0.5 mg/kg subcutaneous on Day 0 ((S)-enantiomers)", "value": 100, "unit": "%"}, {"measurement": "Average % Efficacy (Tick Count)", "setting": "[2]; Day 60, 0.5 mg/kg subcutaneous on Day 0 ((S)-enantiomers)", "value": 100, "unit": "%"}, {"measurement": "Average % Efficacy (Tick Count)", "setting": "[2]; Day 65, 0.5 mg/kg subcutaneous on Day 0 ((S)-enantiomers)", "value": 100, "unit": "%"}, {"measurement": "Average % Efficacy (Tick Count)", "setting": "[2]; Day 70, 0.5 mg/kg subcutaneous on Day 0 ((S)-enantiomers)", "value": 100, "unit": "%"}, {"measurement": "Average % Efficacy (Tick Count)", "setting": "[2]; Day 75, 0.5 mg/kg subcutaneous on Day 0 ((S)-enantiomers)", "value": 100, "unit": "%"}, {"measurement": "Average % Efficacy (Tick Count)", "setting": "[2]; Day 80, 0.5 mg/kg subcutaneous on Day 0 ((S)-enantiomers)", "value": 100, "unit": "%"}, {"measurement": "Average % Efficacy (Tick Count)", "setting": "[2]; Day 85, 0.5 mg/kg subcutaneous on Day 0 ((S)-enantiomers)", "value": 90, "unit": "%"}, {"measurement": "Average % Efficacy (Tick Count)", "setting": "[2]; Day 88, 0.5 mg/kg subcutaneous on Day 0 ((S)-enantiomers)", "value": 88, "unit": "%"}, {"measurement": "Average % Efficacy (Tick Count)", "setting": "[2]; Day 95, 0.5 mg/kg subcutaneous on Day 0 ((S)-enantiomers)", "value": 92, "unit": "%"}, {"measurement": "Average % Efficacy (Tick Count)", "setting": "[2]; Day 100, 0.5 mg/kg subcutaneous on Day 0 ((S)-enantiomers)", "value": 88, "unit": "%"}, {"measurement": "Average % Efficacy (Tick Count)", "setting": "[2]; Day 105, 0.5 mg/kg subcutaneous on Day 0 ((S)-enantiomers)", "value": 76, "unit": "%"}, {"measurement": "Average % Efficacy (Tick Count)", "setting": "[2]; Day 110, 0.5 mg/kg subcutaneous on Day 0 ((S)-enantiomers)", "value": 65, "unit": "%"}, {"measurement": "efficacy and duration of activity against Rhipicephalus microplus compared with other isoxazoline compounds", "setting": "[2]; [3]", "value": "surprising and unexpected efficacy"}, {"measurement": "speed of onset of efficacy against Rhipicephalus microplus compared with other isoxazoline compounds", "setting": "[2]; [3]", "value": "faster-acting"}]}]}
